Results as given in patent US5159002A, “Method for purifying dermostatin A and dermostatin B” (Xechem Inc., priority 1990, dated 1992).
Entries after “also recorded” stand apart in the source; their conditions may differ.

Experiments:
[1] = test system: H9 cells; assay: Survival/viability of HIV-infected H9 cells (trypan blue exclusion), % control; details: for viability at 0.01 µg/mL / viability at 0.1 µg/mL / viability at 1 µg/mL / viability at 10 µg/mL / viability at 5 µg/mL: Homo sapiens, H9, 96 h, read-out: Cell Survival (% Control); for viability of cells in the presence of HIV (in words): in vitro
[2] = test system: HIV virus; details: for inhibition of viral replication (in words): about 1 μg/ml; for activity against HIV / inhibition of viral replication (in words): in vitro
[3] = Solubility; type: physicochemical; details: Tables I-III
[4] = test system: target cells; assay: Toxicity to the cells; type: cell-based

Q: With `C[C@@H]1[C@H](O)[C@@H](C)/C=C/C=C/CC/C=C/C=C/C=C/C=C/[C@H](O[C@@H]2O[C@H](C)[C@@H](O)[C@H](N)[C@@H]2O)C[C@@H]2O[C@](O)(C[C@@H](O)C[C@@H](O)[C@H](O)CC[C@@H](O)C[C@@H](O)CC(=O)O[C@H]1C)C[C@H](O)[C@H]2C(=O)O` [Amphotericin A, reference compound] as the compound, how does the “Cell Survival (% Control)” value ([1]; Table IV, conc. not printed (line between 10 and 0.1), added with HIV, 4 days) read?
A: 75 % Control

Q: Which viability at 0.01 µg/mL [1] does the source give for `C[C@@H]1[C@H](O)[C@@H](C)/C=C/C=C/C=C/C=C/C=C/C=C/C=C/[C@H](O[C@@H]2O[C@H](C)[C@@H](O)[C@H](N)[C@@H]2O)C[C@@H]2O[C@](O)(C[C@@H](O)C[C@@H](O)[C@H](O)CC[C@@H](O)C[C@@H](O)CC(=O)O[C@H]1C)C[C@H](O)[C@H]2C(=O)O` [Amphotericin B, reference compound] here?
A: 13%

Q: What about the viability at 0.1 µg/mL [1] of the same compound?
A: 11%

Q: And the viability at 1 µg/mL [1]?
A: 33%

Q: What about the viability at 10 µg/mL [1] of the same compound?
A: 73%

Q: For `CC(C)C1OC(=O)/C=C/C=C/C=C/C=C/C=C/C=C/CC(O)C(C)C(O)CC(O)CC(O)CC(O)CC(O)CC(O)CC(O)CC(O)/C=C/C1C` (stereo not drawn) [Dermostatin A], which “inhibition of viral replication (in words)” value [2] is on record?
A: high levels of inhibition to viral replication have been achieved

Q: And the “activity against HIV / inhibition of viral replication (in words)” value [2]?
A: inhibit the ability of the HIV virus to replicate within the lymphocyte after penetration by the virus

Q: And the Solubility [3]?
A: Soluble in MeOH, DMSO, DMF; also recorded: Insoluble in H2 O, pet ether, hexane

Q: What about the viability at 0.01 µg/mL [1] of the same compound?
A: 0%

Q: And the viability at 0.1 µg/mL [1]?
A: 18%

Q: What about the viability at 1 µg/mL [1] of the same compound?
A: 92%

Q: And the viability at 5 µg/mL [1]?
A: 99%

Q: What about the “viability of cells in the presence of HIV (in words)” value [1] of the same compound?
A: improve the viability of lymphocyte cells in the presence of HIV; also recorded: protective effect

Q: What does the source list for `CCC(C)C1OC(=O)/C=C/C=C/C=C/C=C/C=C/C=C/CC(O)C(C)C(O)CC(O)CC(O)CC(O)CC(O)CC(O)CC(O)CC(O)/C=C/C1C` (stereo not drawn) [Dermostatin B]?
A: inhibition of viral replication (in words) [2]: high levels of inhibition to viral replication have been achieved; activity against HIV / inhibition of viral replication (in words) [2]: inhibit the ability of the HIV virus to replicate within the lymphocyte after penetration by the virus; Solubility [3]: Soluble in MeOH, DMSO, DMF; also recorded: Insoluble in H2 O, pet ether, hexane; viability at 0.01 µg/mL [1]: 0%; viability at 0.1 µg/mL [1]: 0%; viability at 1 µg/mL [1]: 87%; viability at 5 µg/mL [1]: 97%; viability of cells in the presence of HIV (in words) [1]: improve the viability of lymphocyte cells in the presence of HIV; also recorded: protective effect

Q: What does the source list for `CCCCC[C@@H](O)[C@H]1C(=O)O[C@H](C)[C@@H](O)/C=C/C=C/C=C/C=C/C=C(\C)[C@@H](O)C[C@H](O)C[C@H](O)C[C@H](O)C[C@H](O)C[C@H](O)C[C@@H]1O` [Filipin, reference compound]?
A: activity against HIV / inhibition of viral replication (in words) [2]: not active against HIV; viability at 0.1 µg/mL [1]: 48%; viability at 1 µg/mL [1]: 51%; viability at 10 µg/mL [1]: 49%

Q: With Candicidin as the compound, how does the “toxicity to the cells (in words)” value [4] read?
A: toxic to the cells; also recorded: its own cytotoxic effects takes its toll on the target cells

Q: What about the “effect against HIV infection at noncytotoxic doses (in words)” value [2] of the same compound?
A: no advantage whatsoever is seen
